Results published in patent US11773188B2, “Chitosan-derived compositions” (Immunophotonics, Inc, priority 2012, dated 2023).
Like-named read-outs stand apart in the source and are kept apart here.

Key:
breast cancer = test system: breast cancer
Description: In one exemplary clinical study, two breast cancer patients received cyclophosphamide weekly (after inCVAX treatment) at a dose of between 150 and 200 mg/m^2. […] The patients continued to receive the low dose chemotherapy.

[1] = test system: DMBA-4 transplantable, metastatic mammary tumor; assay: Different components of laser-assisted immunotherapy in metastatic breast tumor-bearing rats; format: in vivo, Wistar Furth rats; conditions: 0.25% ICG injection only, 0.2 mL intratumoral; 12 rats; all rats dying
Description: The laser-assisted immunotherapy system consisted of a near-infrared laser diode laser with a maximum output of 25 W; the laser-absorbing dye, indocyanine green; and the immunoadjuvant, glycated chitosan. When the primary tumor was 0.2 to 0.5 cm^3, treatment was initiated in the tumor-bearing rats. A solution of 0.2 mL of GC and/or ICG was injected into the center of the primary tumor in all groups. In rats receiving laser treatment, the injections occurred 2 h before irradiation, with animals anesthetized and the hair overlaying the tumor clipped. The laser settings were 2 W and 10 min, with the laser fiber tip maintained a distance of 4 mm from the overlying skin and the laser energy directed to the treatment sites through optical fibers. The animals were individually housed following treatment. In the survival studies, the breast or prostate tumor-bearing rats were observed daily and the three dimensions of each tumor were measured weekly. Female Wistar Furth rats (5 to 6 weeks of age, 100 to 125 g) were subcutaneously inoculated with the DMBA-4 transplantable, metastatic mammary tumor (10^5 viable tumor cells) into one inguinal fat pad of each rat. The primary tumor emerged 7 to 10 days after inoculation. […] The survival rate and primary and metastatic tumor profiles were determined for the individual components and various combinations of the components.

[2] = test system: Line 1 lung adenocarcinoma; conditions: no GC, 8 mice
Description: To evaluate photodynamic therapy as a the method for direct tumor destruction in combination with glycated chitosan, a combination of photofrin- and meso-substituted tetra (meta-hydroxy-phenyl) chlorin-(mTHPC) based photodynamic therapy and glycated chitosan injection was been studied in the EMT6 mammary sarcoma and Line 1 lung adenocarcinoma mouse models, respectively. In each model, BALB/c mice were subcutaneously inoculated with 10^6 viable tumor cells into the lower dorsal area. Tumors were treatment size (7 to 8 mm) after 7 days.
A 0.1 mg/kg dose of mTHPC was intravenously administered 24 h prior to irradiation. Animals were shielded from direct light immediately after the photosensitizer injection until 3 days after photodynamic treatment. Mice were restrained anaesthetized in holders exposing their backs during light treatment. A 652 nm light from a 0.25 W diode laser was delivered through an 8 mm diameter liquid light guide. The power density was set at 110 mW/cm^2, fora total light dose of 30 J/cm^2.

EMT6 mammary sarcoma = assay: Photofrin-based photodynamic therapy and glycated chitosan in EMT6 model; format: in vivo, BALB/c mice; conditions: 8 mice
Description: In each model, BALB/c mice were subcutaneously inoculated with 10^6 viable tumor cells into the lower dorsal area. Tumors were treatment size (7 to 8 mm) after 7 days.
In the EMT6 mammary sarcoma model, treatment groups evaluated are detailed in the table below. Photofrin (Mont-Saint-Hilaire, Quebec, Canada) was prepared in 5% sterile dextrose to a 1 mg/mL concentration. A 5 mg/kg dose of photofrin was intravenously administered 24 h prior to irradiation. Animals were shielded from direct light immediately after the photosensitizer injection until 3 days after photodynamic treatment. Mice were restrained anaesthetized in holders exposing their backs during light treatment. Light (630 nm) was delivered through an 8 mm diameter liquid light guide. The power density was set at 100 mW/cm^2, for a total light dose of 60 J/cm^2. Immediately after light irradiation, if applicable, animals were administered a peritumoral dose of 0.5 or 1.5% glycated chitosan.

[3] = weekly 150-200 mg/m^2 after inCVAX treatment, two breast cancer patients

**Q.** `CC(=O)O[C@H]1C(=O)[C@@]2(C)[C@H]([C@H](OC(=O)c3ccccc3)[C@]3(O)C[C@H](OC(=O)[C@H](O)[C@@H](NC(=O)c4ccccc4)c4ccccc4)C(C)=C1C3(C)C)[C@]1(OC(C)=O)CO[C@@H]1C[C@@H]2O` [Paclitaxel] was tested. Which tumor response (breast cancer; weekly 75 mg/m^2 after response to cyclophosphamide slowed) did it give?
**A.** the response was very good with shrinking tumors

**Q.** How did the adverse reactions (breast cancer; [3]) turn out when `O=P1(N(CCCl)CCCl)NCCCO1` (centres unmarked) [cyclophosphamide] was run?
**A.** minimal adverse reactions

**Q.** What about the tumor response (breast cancer; [3]) of the same molecule?
**A.** responded well to the treatment with tumor shrinkage

**Q.** How did the “survival after single component treatment” value [1] turn out when `CC1(C)C(/C=C/C=C/C=C/C=C2\N(CCCCS(=O)(=O)O)c3ccc4ccccc4c3C2(C)C)=[N+](CCCCS(=O)(=O)[O-])c2ccc3ccccc3c21` [indocyanine green] was run?
**A.** average survival times similar to the control group

**Q.** For `Oc1cccc(-c2c3nc(c(-c4cccc(O)c4)c4ccc([nH]4)c(-c4cccc(O)c4)c4nc(c(-c5cccc(O)c5)c5ccc2[nH]5)CC4)C=C3)c1` [mTHPC, meso-substituted tetra (meta-hydroxy-phenyl) chlorin], which “Number of Long-Term Surviving Mice” value ([2]; Laser (652 nm, 30 J/cm^2) + mTHPC 0.1 mg/kg i.v. 24 h before) is on record?
**A.** 0

**Q.** What about the “Long-term Survival Rate” value ([2]; Laser + mTHPC 0.1 mg/kg i.v.) of the same molecule?
**A.** 0.0%

**Q.** With Photofrin as the molecule, how does the “Number of Long-Term Surviving Mice” value (EMT6 mammary sarcoma; Non-Thermal Laser + Photofrin 5 mg/kg i.v. 24 h before 630 nm light 60 J/cm^2) read?
**A.** 3

**Q.** What about the “Long-term Survival Rate” value (EMT6 mammary sarcoma; Non-Thermal Laser + Photofrin 5 mg/kg i.v., no GC) of the same molecule?
**A.** 37.5%
